Measurements taken from the CheMixHub viscosity set.

Experiment: xn = mol fraction of the nth substance listed

CCCCCCCCCCCCCCCC + C1CCCCC1
viscosity [mPa·s]
Conditions | 298.15 K | 323.15 K
100 kPa, x2 = 0.2 | 2.654 | 1.632
100 kPa, x2 = 0.4 | 2.239 | 1.399
100 kPa, x2 = 0.6 | 1.79 | 1.154
100 kPa, x2 = 0.8 | 1.326 | 0.8848
101.33 kPa, x1 = 0.0129 | 0.9348 | –
101.33 kPa, x2 = 0.1809 | 2.717 | –
101.33 kPa, x2 = 0.3339 | 2.395 | –
101.33 kPa, x2 = 0.458 | 2.126 | –
101.33 kPa, x2 = 0.557 | 1.892 | –
101.33 kPa, x2 = 0.6415 | 1.709 | –
101.33 kPa, x2 = 0.7087 | 1.549 | –
101.33 kPa, x2 = 0.7738 | 1.39 | –
101.33 kPa, x2 = 0.828 | 1.27 | –
101.33 kPa, x2 = 0.8753 | 1.169 | –
101.33 kPa, x2 = 0.9197 | 1.08 | –
101.33 kPa, x2 = 0.9513 | 1.008 | –

ClC(Cl)Cl + C1CCCCC1
298.15 K, 101 kPa
Conditions | viscosity [mPa·s]
x1 = 0.2026 | 0.7795
x1 = 0.3543 | 0.6917
x1 = 0.4317 | 0.665
x1 = 0.5593 | 0.6217
x1 = 0.6464 | 0.6057
x1 = 0.7738 | 0.5875
x1 = 0.886 | 0.5657

ClC(Cl)Cl + C1COCCO1
Conditions | viscosity [mPa·s]
293.15 K, 101.33 kPa, x1 = 0.152 | 1.199
293.15 K, 101.33 kPa, x1 = 0.2726 | 1.129
293.15 K, 101.33 kPa, x1 = 0.3876 | 1.063
293.15 K, 101.33 kPa, x1 = 0.4413 | 1.035
293.15 K, 101.33 kPa, x1 = 0.516 | 0.992
293.15 K, 101.33 kPa, x1 = 0.6385 | 0.919
293.15 K, 101.33 kPa, x1 = 0.7409 | 0.819
293.15 K, 101.33 kPa, x1 = 0.8856 | 0.677
298.15 K, 101 kPa, x1 = 0.2 | 1.08
298.15 K, 101 kPa, x1 = 0.4 | 0.981
298.15 K, 101 kPa, x1 = 0.6 | 0.865
298.15 K, 101 kPa, x1 = 0.8 | 0.703
298.15 K, 101.33 kPa, x1 = 0.152 | 1.073
298.15 K, 101.33 kPa, x1 = 0.2726 | 1.018
298.15 K, 101.33 kPa, x1 = 0.3876 | 0.964
298.15 K, 101.33 kPa, x1 = 0.4413 | 0.952
298.15 K, 101.33 kPa, x1 = 0.516 | 0.905
298.15 K, 101.33 kPa, x1 = 0.6385 | 0.837
298.15 K, 101.33 kPa, x1 = 0.7409 | 0.774
298.15 K, 101.33 kPa, x1 = 0.8856 | 0.658
303.15 K, 101 kPa, x2 = 0.0995 | 0.59
303.15 K, 101 kPa, x2 = 0.1981 | 0.672
303.15 K, 101 kPa, x2 = 0.2998 | 0.75
303.15 K, 101 kPa, x2 = 0.3953 | 0.801
303.15 K, 101 kPa, x2 = 0.4992 | 0.857
303.15 K, 101 kPa, x2 = 0.5971 | 0.91
303.15 K, 101 kPa, x2 = 0.6993 | 0.956
303.15 K, 101 kPa, x2 = 0.8015 | 0.997
303.15 K, 101 kPa, x2 = 0.9021 | 1.044
303.15 K, 101.33 kPa, x1 = 0.2137 | 1.007
303.15 K, 101.33 kPa, x1 = 0.3447 | 0.949
303.15 K, 101.33 kPa, x1 = 0.4212 | 0.934
303.15 K, 101.33 kPa, x1 = 0.4813 | 0.886
303.15 K, 101.33 kPa, x1 = 0.5194 | 0.879
303.15 K, 101.33 kPa, x1 = 0.5698 | 0.844
303.15 K, 101.33 kPa, x1 = 0.7088 | 0.752

ClC(Cl)Cl + CC1COC(=O)O1
303.15 K, 101.3 kPa
Conditions | viscosity [mPa·s]
x2 = 0.0961 | 0.5649
x2 = 0.1929 | 0.6358
x2 = 0.2906 | 0.7195
x2 = 0.3894 | 0.8171
x2 = 0.4887 | 0.9421
x2 = 0.5894 | 1.098
x2 = 0.6906 | 1.287
x2 = 0.7925 | 1.52
x2 = 0.8962 | 1.808

O=C(O)CCl + CC(C)=O
viscosity [mPa·s], 101 kPa
Conditions | x1 = 0.1359 | x1 = 0.1855 | x1 = 0.2889 | x1 = 0.3789 | x1 = 0.4791 | x1 = 0.6971 | x1 = 0.8145
298.15 K | 0.4351 | 0.5339 | 0.7329 | 0.9727 | 1.345 | – | –
308.15 K | 0.394 | 0.4777 | 0.6435 | 0.8439 | 1.131 | 2.166 | –
323.15 K | 0.3409 | 0.4134 | 0.5393 | 0.6876 | 0.9042 | 1.6 | 2.123

O=CC(Cl)(Cl)Cl + CC(C)=O
viscosity [mPa·s], 101 kPa
Conditions | x1 = 0.0713 | x1 = 0.1371 | x1 = 0.2697 | x1 = 0.3708 | x1 = 0.4723 | x1 = 0.5664 | x1 = 0.6561 | x1 = 0.7731 | x1 = 0.8964
298.15 K | 0.4048 | 0.4541 | 0.5494 | 0.6015 | 0.6699 | 0.7342 | 0.7924 | 0.8894 | 0.9679
308.15 K | 0.3678 | 0.4111 | – | 0.5376 | 0.5949 | 0.6484 | 0.7021 | 0.7778 | 0.8506
323.15 K | 0.3231 | 0.3615 | 0.4176 | 0.4606 | 0.5118 | 0.554 | 0.6001 | 0.6568 | 0.7107
